{
  "source": "patent US11807625B2",
  "about": "“Capsid inhibitors for the prevention of HIV” (Gilead Sciences, Inc., priority 2019, dated 2023)",
  "experiment": "PK of compound of Formula (Ia) after single subcutaneous dose of solution formulations in Wistar Han rats",
  "format": "in vivo",
  "details": "male, Wistar Han, rat, plasma, sc, 50 mg/kg; for concentration at 2688 h / concentration at 3024 h / concentration at 3360 h / concentration at 3696 h / concentration at 4032 h / concentration at 4704 h: Wistar Han rats, SC 50 mg/kg, 500 mg/mL solution X (5.00% ethanol, 1.91% poloxamer 188); for AUC(0-t): male Wistar Han rats, single SC 50 mg/kg, mean ± SD",
  "protocol": "Formulations containing the compound of Formula (Ia), or a pharmaceutically acceptable salt thereof, were prepared as solutions and optionally administered subcutaneously or intramuscularly to rats, rabbits, and/or dogs.\nA solution of about 400 mg/mL of the compound of Formula (Ia) having 19.14 w/w % water, 40.66 w/w % PEG 300, 35.20 w/w % of a sodium salt of a compound of Formula (Ia), and 5.00% ethanol was prepared. The solution was administered subcutaneously to male Wistar Han rats at a dose level of about 50 mg/kg and dose volume of 0.125 mL/kg and the pharmacokinetic (PK) profile was determined.\nA solution of about 500 mg/mL of the compound of Formula (Ia) having 16.64 w/w % water, 35.36 w/w % PEG 300, 43.00 w/w % of a sodium salt of a compound of Formula (Ia), and 5.00% ethanol was prepared. The solution was administered subcutaneously to male Wistar Han rats at a dose level of about 50 mg/kg and dose volume of 0.1 mL/kg and the pharmacokinetic (PK) profile was determined.\nA solution of about 400 mg/mL of the compound of Formula (Ia) having 17.00 w/w % water, 36.40 w/w % PEG 300, 35.20 w/w % of a sodium salt of a compound of Formula (Ia), 5.00 w/w % ethanol, and 6.40 w/w % poloxamer 188 was prepared. The solution was administered subcutaneously to male beagle dogs at a dose level of about 12 mg/kg and male Wistar Han rats at a dose level of about 50 mg/kg. The pharmacokinetic profiles were determined, and the results for dogs are summarized in Table and Table, while the results for rats are summarized in Table and Table below.\nA solution of about 500 mg/mL of the compound of Formula (Ia) having 14.06 w/w % water, 30.12 w/w % PEG 300, […] of a sodium salt of a compound of Formula (Ia), 5.00 w/w % ethanol, and 6.40 w/w % poloxamer 188 was prepared. The solution was administered subcutaneously to male beagle dogs at a dose level of about 12 mg/kg and male Wistar Han rats at a dose level of about 50 mg/kg. The pharmacokinetic profiles were determined, and the results for dogs are summarized in Table and Table, while the results for rats are summarized in Table and Table below.\nA solution of about 300 mg/mL of the compound of Formula (Ia) having 23.33 w/w % water, 48.99 w/w % PEG 300, 26.47 w/w % of a sodium salt of a compound of Formula (Ia), and 1.21 w/w % poloxamer 188 was prepared. The solution was administered subcutaneously to male beagle dogs at a dose level of about 6 mg/kg and male Wistar Han rats at a dose level of about 50 mg/kg. The pharmacokinetic profiles were determined, and the results for dogs are summarized in Table and Table, while the results for rats are summarized in Table and Table below.\nA solution of about 400 mg/mL of the compound of Formula (Ia) having 18.80 w/w % water, 40.25 w/w % PEG 300, 34.38 w/w % of a sodium salt of a compound of Formula (Ia), 5.00 w/w % ethanol, and 1.57 w/w % poloxamer 188 was prepared. The solution was administered subcutaneously to male beagle dogs at a dose level of about 12 mg/kg and male Wistar Han rats at a dose level of about 50 mg/kg. The pharmacokinetic profiles were determined, and the results for dogs are summarized in Table and Table, while the results for rats are summarized in Table and Table below.\nA solution of about 500 mg/mL of the compound of Formula (Ia) having 16.29 w/w % water, 34.88 w/w % PEG 300, 41.92 w/w % of a sodium salt of a compound of Formula (Ia), 5.00 w/w % ethanol, and 1.91 w/w % poloxamer 188 was prepared. The solution was administered subcutaneously to male beagle dogs at a dose level of about 12 mg/kg and male Wistar Han rats at a dose level of about 50 mg/kg. The pharmacokinetic profiles were determined, and the results for dogs are summarized in Table and Table, while the results for rats are summarized in Table and Table below.\nA solution of about 400 mg/mL of the compound of Formula (Ia) having 20.90 w/w % water, 44.72 w/w % PEG 300, and 34.38 w/w % of a sodium salt of a compound of Formula (Ia) was prepared. […]",
  "note": "Read-outs that look alike come from different tables or passages of the source.",
  "data": [
    {"smiles": "CC(C)(C#Cc1ccc(-c2ccc(Cl)c3c(NS(C)(=O)=O)nn(CC(F)(F)F)c23)c([C@H](Cc2cc(F)cc(F)c2)NC(=O)Cn2nc(C(F)(F)F)c3c2C(F)(F)[C@@H]2C[C@H]32)n1)S(C)(=O)=O", "note": "[compound of Formula (Ia)]", "values": [
      {"measurement": "concentration at 2688 h", "setting": "Mean n = 3", "value": 168, "unit": "nM"},
      {"measurement": "concentration at 2688 h", "setting": "animals #1-#3", "value": 141, "unit": "nM"},
      {"measurement": "concentration at 3024 h", "setting": "Mean n = 3", "value": 161, "unit": "nM"},
      {"measurement": "concentration at 3024 h", "setting": "animals #1-#3", "value": 127, "unit": "nM"},
      {"measurement": "concentration at 3360 h", "setting": "Mean n = 3", "value": 157, "unit": "nM"},
      {"measurement": "concentration at 3360 h", "setting": "animals #1-#3", "value": 122, "unit": "nM"},
      {"measurement": "concentration at 3696 h", "setting": "Mean n = 3", "value": 134, "unit": "nM"},
      {"measurement": "concentration at 3696 h", "setting": "animals #1-#3", "value": 121, "unit": "nM"},
      {"measurement": "concentration at 4032 h", "setting": "Mean n = 3", "value": 135, "unit": "nM"},
      {"measurement": "concentration at 4032 h", "setting": "animals #1-#3", "value": 97.5, "unit": "nM"},
      {"measurement": "concentration at 4704 h", "setting": "Mean n = 3", "value": 88.8, "unit": "nM"},
      {"measurement": "concentration at 4704 h", "setting": "animals #1-#3", "value": 79.4, "unit": "nM"},
      {"measurement": "AUC(0-t)", "setting": "400 mg/mL solution AA (6.25% poloxamer 188), n = 4, read-out: AUC0-24 h", "value": "3.44 ± 0.69", "unit": "µM·h"},
      {"measurement": "AUC(0-t)", "setting": "400 mg/mL solution AA (6.25% poloxamer 188), n = 4, read-out: AUC0-168 h", "value": "32.4 ± 7.6", "unit": "µM·h"},
      {"measurement": "AUC(0-t)", "setting": "400 mg/mL solution AA (6.25% poloxamer 188), n = 4, read-out: AUC0-336 h", "value": "55.2 ± 16.3", "unit": "µM·h"},
      {"measurement": "AUC(0-t)", "setting": "400 mg/mL solution AA (6.25% poloxamer 188), n = 4, read-out: AUC0-672 h", "value": "98 ± 30.4", "unit": "µM·h"},
      {"measurement": "AUC(0-t)", "setting": "400 mg/mL solution AA (6.25% poloxamer 188), n = 4, read-out: AUC0-1008 h", "value": "136 ± 36", "unit": "µM·h"},
      {"measurement": "AUC(0-t)", "setting": "400 mg/mL solution AA (6.25% poloxamer 188), n = 4, read-out: AUC0-1344 h", "value": "167 ± 41", "unit": "µM·h"},
      {"measurement": "AUC(0-t)", "setting": "400 mg/mL solution AA (6.25% poloxamer 188), n = 4, read-out: AUC0-2352 h", "value": "190 ± 45", "unit": "µM·h"},
      {"measurement": "AUC(0-t)", "setting": "400 mg/mL solution AA (6.25% poloxamer 188), n = 4, read-out: AUC0-3024 h", "value": "240 ± 59", "unit": "µM·h"},
      {"measurement": "AUC(0-t)", "setting": "400 mg/mL solution AA (6.25% poloxamer 188), n = 4, read-out: AUC0-3696 h", "value": "289 ± 76", "unit": "µM·h"},
      {"measurement": "AUC(0-t)", "setting": "400 mg/mL solution W (5.00% ethanol, 1.57% poloxamer 188), n = 3, read-out: AUC0-24 h", "value": "2 ± 0.58", "unit": "µM·h"},
      {"measurement": "AUC(0-t)", "setting": "400 mg/mL solution W (5.00% ethanol, 1.57% poloxamer 188), n = 3, read-out: AUC0-168 h", "value": "21.6 ± 4.5", "unit": "µM·h"},
      {"measurement": "AUC(0-t)", "setting": "400 mg/mL solution W (5.00% ethanol, 1.57% poloxamer 188), n = 3, read-out: AUC0-336 h", "value": "45.9 ± 11.9", "unit": "µM·h"},
      {"measurement": "AUC(0-t)", "setting": "400 mg/mL solution W (5.00% ethanol, 1.57% poloxamer 188), n = 3, read-out: AUC0-672 h", "value": "124 ± 32", "unit": "µM·h"},
      {"measurement": "AUC(0-t)", "setting": "400 mg/mL solution W (5.00% ethanol, 1.57% poloxamer 188), n = 3, read-out: AUC0-1008 h", "value": "215 ± 45", "unit": "µM·h"},
      {"measurement": "AUC(0-t)", "setting": "400 mg/mL solution W (5.00% ethanol, 1.57% poloxamer 188), n = 3, read-out: AUC0-1344 h", "value": "306 ± 65", "unit": "µM·h"},
      {"measurement": "AUC(0-t)", "setting": "400 mg/mL solution W (5.00% ethanol, 1.57% poloxamer 188), n = 3, read-out: AUC0-1680 h", "value": "401 ± 86", "unit": "µM·h"},
      {"measurement": "AUC(0-t)", "setting": "400 mg/mL solution W (5.00% ethanol, 1.57% poloxamer 188), n = 3, read-out: AUC0-2352 h", "value": "540 ± 114", "unit": "µM·h"},
      {"measurement": "AUC(0-t)", "setting": "400 mg/mL solution W (5.00% ethanol, 1.57% poloxamer 188), n = 3, read-out: AUC0-3024 h", "value": "647 ± 126", "unit": "µM·h"},
      {"measurement": "AUC(0-t)", "setting": "400 mg/mL solution W (5.00% ethanol, 1.57% poloxamer 188), n = 3, read-out: AUC0-3696 h", "value": "730 ± 131", "unit": "µM·h"},
      {"measurement": "AUC(0-t)", "setting": "400 mg/mL solution W (5.00% ethanol, 1.57% poloxamer 188), n = 3, read-out: AUC0-4704 h", "value": "765 ± 131", "unit": "µM·h"},
      {"measurement": "AUC(0-t)", "setting": "400 mg/mL solution Y (water, PEG 300), n = 4, read-out: AUC0-24 h", "value": "1.66 ± 0.32", "unit": "µM·h"},
      {"measurement": "AUC(0-t)", "setting": "400 mg/mL solution Y (water, PEG 300), n = 4, read-out: AUC0-168 h", "value": "15.7 ± 4.7", "unit": "µM·h"}
    ]}
  ]
}
